Reference: article PMC9962921, “Interlaboratory Study to Evaluate a Testing Protocol for the Safety of Food Packaging Coatings” (Toxics, 2023)
Like-named read-outs stand apart in the source and are kept apart here.

Tests used:
[1] = target: T1, Aryl hydrocarbon Receptor (AhR) (Rattus norvegicus, UniProt P41738); details: read-out: EC50 standard range, AhR reference compound; historical range; ref BDS BioDetection Systems historical data; cited from earlier work
T1 sequence (P41738 10-853): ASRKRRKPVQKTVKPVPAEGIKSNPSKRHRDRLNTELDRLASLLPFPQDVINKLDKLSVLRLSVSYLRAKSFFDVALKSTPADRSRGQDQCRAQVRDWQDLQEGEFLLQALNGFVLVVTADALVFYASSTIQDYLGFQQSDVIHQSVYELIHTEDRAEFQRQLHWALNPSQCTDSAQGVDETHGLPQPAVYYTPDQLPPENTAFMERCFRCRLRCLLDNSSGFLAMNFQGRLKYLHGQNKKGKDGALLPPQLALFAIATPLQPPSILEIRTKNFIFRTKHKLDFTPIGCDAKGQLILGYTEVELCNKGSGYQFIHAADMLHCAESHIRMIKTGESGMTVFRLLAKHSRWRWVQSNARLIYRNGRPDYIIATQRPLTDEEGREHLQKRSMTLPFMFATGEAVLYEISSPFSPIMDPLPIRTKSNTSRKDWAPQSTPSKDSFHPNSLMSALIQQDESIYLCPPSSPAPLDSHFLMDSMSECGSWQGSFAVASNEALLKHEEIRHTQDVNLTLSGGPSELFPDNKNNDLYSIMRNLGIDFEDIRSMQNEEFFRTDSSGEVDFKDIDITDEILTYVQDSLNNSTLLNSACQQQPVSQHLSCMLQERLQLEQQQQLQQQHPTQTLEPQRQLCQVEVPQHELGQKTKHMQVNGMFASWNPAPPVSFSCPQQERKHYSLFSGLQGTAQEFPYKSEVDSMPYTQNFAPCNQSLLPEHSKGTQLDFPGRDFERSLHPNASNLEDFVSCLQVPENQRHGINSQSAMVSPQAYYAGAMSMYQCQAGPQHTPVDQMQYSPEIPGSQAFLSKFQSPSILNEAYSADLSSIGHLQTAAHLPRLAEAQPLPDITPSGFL

[2] = target: T1, Aryl hydrocarbon Receptor (AhR); assay: AhR (PAH) CALUX reporter gene assay; details: EC50 AhR reference compound (mean)
Experimental: Briefly, cells were seeded in a 96-well plate (VWR, Dietikon, Switzerland) and incubated for 24 h at 37 °C, 5% CO2 and 100% humidity. […] In addition, a serial dilution of each of the different migrates were exposed in triplicates. After 24 h of exposure for cytotoxicity, ERα, AR and 4 h of exposure for poly-aromatic hydrocarbons (PAH) of exposure, the luciferase activity is measured with a luminometer plate reader (Mithras, Berthold, Germany).
Relative luminescence units obtained were processed as described by proprietary calculation template (BDS) (Amsterdam, The Netherlands). Receptor-binding activation was quantified as the amount of relative luciferase units (RLU) emitted after samples’ exposure. The signal is proportional to the amount of ligand-specific receptor-binding activation. After normalization to solvent control (DMSO) the percentage of relative induction (RI) or relative inhibition (RInh) was calculated for the selected nuclear receptors and the cell viability. The samples were then expressed as percentage of the maximum reference compound response. All dose responses and dilutions were performed in technical triplicates. […] For the PAH CALUX bioassay, the threshold level was set as 10%. […] Dose–response obtained between laboratories C and D was compared.

With `c1ccc2c(c1)cc1ccc3cccc4ccc2c1c34` [Benzo(a)pyrene, benzo[a]pyrene] as the compound, how does the EC50 [1] read?
The EC50 was 1.6 to 16 nM.

And the EC50 ([2]; LAB C)?
The EC50 was 3.3 nM.

What about the EC50 ([2]; LAB D) of the same compound?
The EC50 was 7.2 nM.
